ChEMBL document CHEMBL1149912, “Chemical fragments as foundations for understanding target space and activity prediction” (J Med Chem, 2008)
Blank lines part the entries; values can stand above or below the molecule they belong to.

Columns and labels:
[1] = biological target: Stromelysin-1 (Homo sapiens) (UniProt P08254); test: Inhibition of MMP3
[2] = biological target: Neprilysin (Homo sapiens) (UniProt P08473); test: Inhibition of MME
[3] = biological target: T1, Cholecystokinin receptor type A (Homo sapiens) (UniProt P32238); test: Inhibition of CCKAR
T1 sequence (whole entry): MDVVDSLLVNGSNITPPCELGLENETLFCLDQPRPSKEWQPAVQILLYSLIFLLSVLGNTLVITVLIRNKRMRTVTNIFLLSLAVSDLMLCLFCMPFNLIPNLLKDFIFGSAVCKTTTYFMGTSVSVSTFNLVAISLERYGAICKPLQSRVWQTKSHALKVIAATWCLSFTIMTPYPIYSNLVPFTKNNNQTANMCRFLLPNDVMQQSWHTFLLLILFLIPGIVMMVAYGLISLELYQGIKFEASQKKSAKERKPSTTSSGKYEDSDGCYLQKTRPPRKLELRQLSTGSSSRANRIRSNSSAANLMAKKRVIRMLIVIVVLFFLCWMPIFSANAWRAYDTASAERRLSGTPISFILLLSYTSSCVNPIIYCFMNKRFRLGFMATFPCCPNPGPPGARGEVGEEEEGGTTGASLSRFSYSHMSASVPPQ

[4] = biological target: Mitogen-activated protein kinase 14 (Homo sapiens) (UniProt Q16539); test: Inhibition of MAPK14
[5] = biological target: Muscarinic acetylcholine receptor M3 (Homo sapiens) (UniProt P20309); test: Inhibition of CHRM3
[6] = biological target: Prothrombin (Homo sapiens) (UniProt P00734); test: Inhibition of thrombin
Renin (Homo sapiens) = biological target: T2, Renin (Homo sapiens) (UniProt P00797); test: Inhibition of REN
T2 sequence (whole entry): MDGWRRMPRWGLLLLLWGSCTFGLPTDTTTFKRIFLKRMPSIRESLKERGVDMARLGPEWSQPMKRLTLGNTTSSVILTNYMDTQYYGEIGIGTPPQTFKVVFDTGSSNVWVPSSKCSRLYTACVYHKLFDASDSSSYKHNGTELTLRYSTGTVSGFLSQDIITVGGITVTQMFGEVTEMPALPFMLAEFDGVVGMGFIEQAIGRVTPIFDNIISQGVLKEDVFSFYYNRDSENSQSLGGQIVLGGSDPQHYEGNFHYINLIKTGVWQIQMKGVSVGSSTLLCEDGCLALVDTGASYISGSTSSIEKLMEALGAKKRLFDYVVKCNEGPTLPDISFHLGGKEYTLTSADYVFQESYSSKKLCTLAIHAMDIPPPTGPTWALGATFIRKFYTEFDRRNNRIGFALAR

[7] = biological target: Metabotropic glutamate receptor 2 (Homo sapiens) (UniProt Q14416); test: Inhibition of GRM2
[8] = biological target: Voltage-dependent N-type calcium channel subunit alpha-1B (Homo sapiens) (UniProt Q00975); test: Inhibition of CACNA1B
[9] = biological target: T3, Glucocorticoid receptor (Homo sapiens) (UniProt P04150); test: Inhibition of NR3C1
T3 sequence (whole entry): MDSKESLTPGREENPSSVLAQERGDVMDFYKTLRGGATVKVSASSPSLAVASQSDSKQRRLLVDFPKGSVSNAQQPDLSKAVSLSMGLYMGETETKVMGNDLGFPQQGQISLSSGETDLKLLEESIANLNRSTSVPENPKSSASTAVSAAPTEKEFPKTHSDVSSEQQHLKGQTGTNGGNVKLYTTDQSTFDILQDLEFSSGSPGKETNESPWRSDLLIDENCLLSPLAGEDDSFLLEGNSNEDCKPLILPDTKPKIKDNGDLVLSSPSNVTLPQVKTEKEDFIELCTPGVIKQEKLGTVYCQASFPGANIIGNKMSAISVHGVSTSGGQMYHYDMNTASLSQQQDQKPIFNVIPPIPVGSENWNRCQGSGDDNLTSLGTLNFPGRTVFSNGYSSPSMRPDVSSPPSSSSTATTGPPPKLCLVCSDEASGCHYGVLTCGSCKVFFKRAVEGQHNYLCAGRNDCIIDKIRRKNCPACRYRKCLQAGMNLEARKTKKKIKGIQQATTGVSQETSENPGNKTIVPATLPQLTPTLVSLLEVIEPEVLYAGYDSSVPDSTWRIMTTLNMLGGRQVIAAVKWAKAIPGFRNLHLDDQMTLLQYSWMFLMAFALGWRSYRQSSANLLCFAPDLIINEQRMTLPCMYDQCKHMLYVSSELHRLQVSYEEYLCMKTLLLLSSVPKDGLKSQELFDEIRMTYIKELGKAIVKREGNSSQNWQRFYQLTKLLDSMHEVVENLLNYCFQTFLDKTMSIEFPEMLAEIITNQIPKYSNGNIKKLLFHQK

[10] = biological target: Leukotriene B4 receptor 1 (Homo sapiens) (UniProt Q15722); test: Inhibition of LTB4R
[11] = system: NMDA receptor subunit 1, GRIN1; test: Inhibition of GRIN1
[12] = biological target: T4, Prostaglandin D2 receptor 2 (Homo sapiens) (UniProt Q9Y5Y4); test: Inhibition of GPR44
T4 sequence (whole entry): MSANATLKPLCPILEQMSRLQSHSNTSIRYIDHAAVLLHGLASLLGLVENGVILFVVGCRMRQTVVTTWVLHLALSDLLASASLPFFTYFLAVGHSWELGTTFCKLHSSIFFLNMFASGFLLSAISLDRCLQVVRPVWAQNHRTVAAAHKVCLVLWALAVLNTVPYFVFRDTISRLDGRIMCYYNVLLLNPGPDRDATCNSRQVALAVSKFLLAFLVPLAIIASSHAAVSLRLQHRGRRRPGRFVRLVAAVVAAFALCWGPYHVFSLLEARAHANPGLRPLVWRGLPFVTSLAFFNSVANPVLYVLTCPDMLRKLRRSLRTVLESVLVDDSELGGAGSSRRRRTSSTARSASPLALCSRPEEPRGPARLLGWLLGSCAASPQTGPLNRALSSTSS

[13] = biological target: Kappa-type opioid receptor (Homo sapiens) (UniProt P41145); test: Inhibition of OPRK1
[14] = biological target: Sodium-dependent dopamine transporter (Homo sapiens) (UniProt Q01959); test: Inhibition of SLC6A3
[15] = biological target: Aldo-keto reductase family 1 member B1 (Homo sapiens) (UniProt P15121); test: Inhibition of AKR1B1
[16] = biological target: Cathepsin B (Homo sapiens) (UniProt P07858); test: Inhibition of CTSB

Leukotriene B4 receptor 1 (Homo sapiens), sequence (Q15722 whole entry): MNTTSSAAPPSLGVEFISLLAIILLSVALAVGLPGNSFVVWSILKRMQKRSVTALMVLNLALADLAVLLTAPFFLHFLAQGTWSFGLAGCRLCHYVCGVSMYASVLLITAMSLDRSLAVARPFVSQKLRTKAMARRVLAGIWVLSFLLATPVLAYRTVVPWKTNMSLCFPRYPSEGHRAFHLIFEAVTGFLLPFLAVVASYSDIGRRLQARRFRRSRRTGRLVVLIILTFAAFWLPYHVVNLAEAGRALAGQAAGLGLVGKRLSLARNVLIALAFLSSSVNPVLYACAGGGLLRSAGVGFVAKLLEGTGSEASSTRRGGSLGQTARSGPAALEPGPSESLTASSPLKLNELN
Neprilysin (Homo sapiens), sequence (P08473 whole entry): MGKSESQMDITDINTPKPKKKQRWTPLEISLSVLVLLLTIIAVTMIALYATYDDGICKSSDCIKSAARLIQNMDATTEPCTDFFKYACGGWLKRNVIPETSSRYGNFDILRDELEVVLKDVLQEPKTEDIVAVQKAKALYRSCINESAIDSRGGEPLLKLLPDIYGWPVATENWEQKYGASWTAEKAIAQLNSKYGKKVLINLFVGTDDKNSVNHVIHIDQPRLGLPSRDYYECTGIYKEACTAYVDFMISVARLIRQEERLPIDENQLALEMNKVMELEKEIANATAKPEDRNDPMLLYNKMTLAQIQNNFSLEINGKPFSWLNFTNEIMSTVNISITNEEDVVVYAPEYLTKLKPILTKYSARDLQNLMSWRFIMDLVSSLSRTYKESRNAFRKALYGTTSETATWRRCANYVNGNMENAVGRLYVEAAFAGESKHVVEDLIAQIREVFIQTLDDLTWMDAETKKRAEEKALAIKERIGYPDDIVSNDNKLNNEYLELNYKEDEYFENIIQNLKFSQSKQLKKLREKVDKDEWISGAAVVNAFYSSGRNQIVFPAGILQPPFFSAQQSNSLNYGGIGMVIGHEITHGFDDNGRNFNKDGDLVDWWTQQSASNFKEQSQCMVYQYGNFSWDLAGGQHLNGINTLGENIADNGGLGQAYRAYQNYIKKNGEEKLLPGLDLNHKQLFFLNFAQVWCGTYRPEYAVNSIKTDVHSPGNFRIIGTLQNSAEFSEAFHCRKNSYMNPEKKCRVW
Stromelysin-1 (Homo sapiens), sequence (P08254 100-477 limits assumed): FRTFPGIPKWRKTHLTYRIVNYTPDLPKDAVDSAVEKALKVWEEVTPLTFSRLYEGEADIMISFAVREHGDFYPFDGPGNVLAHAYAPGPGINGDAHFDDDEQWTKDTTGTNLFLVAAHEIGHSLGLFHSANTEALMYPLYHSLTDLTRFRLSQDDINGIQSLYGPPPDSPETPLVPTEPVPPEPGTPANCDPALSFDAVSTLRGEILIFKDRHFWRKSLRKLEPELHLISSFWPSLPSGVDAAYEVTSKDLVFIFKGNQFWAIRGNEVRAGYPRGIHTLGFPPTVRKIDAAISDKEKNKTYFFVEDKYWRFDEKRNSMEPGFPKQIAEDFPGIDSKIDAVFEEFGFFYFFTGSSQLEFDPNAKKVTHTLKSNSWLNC
Voltage-dependent N-type calcium channel subunit alpha-1B (Homo sapiens), sequence (Q00975 whole entry, looked up): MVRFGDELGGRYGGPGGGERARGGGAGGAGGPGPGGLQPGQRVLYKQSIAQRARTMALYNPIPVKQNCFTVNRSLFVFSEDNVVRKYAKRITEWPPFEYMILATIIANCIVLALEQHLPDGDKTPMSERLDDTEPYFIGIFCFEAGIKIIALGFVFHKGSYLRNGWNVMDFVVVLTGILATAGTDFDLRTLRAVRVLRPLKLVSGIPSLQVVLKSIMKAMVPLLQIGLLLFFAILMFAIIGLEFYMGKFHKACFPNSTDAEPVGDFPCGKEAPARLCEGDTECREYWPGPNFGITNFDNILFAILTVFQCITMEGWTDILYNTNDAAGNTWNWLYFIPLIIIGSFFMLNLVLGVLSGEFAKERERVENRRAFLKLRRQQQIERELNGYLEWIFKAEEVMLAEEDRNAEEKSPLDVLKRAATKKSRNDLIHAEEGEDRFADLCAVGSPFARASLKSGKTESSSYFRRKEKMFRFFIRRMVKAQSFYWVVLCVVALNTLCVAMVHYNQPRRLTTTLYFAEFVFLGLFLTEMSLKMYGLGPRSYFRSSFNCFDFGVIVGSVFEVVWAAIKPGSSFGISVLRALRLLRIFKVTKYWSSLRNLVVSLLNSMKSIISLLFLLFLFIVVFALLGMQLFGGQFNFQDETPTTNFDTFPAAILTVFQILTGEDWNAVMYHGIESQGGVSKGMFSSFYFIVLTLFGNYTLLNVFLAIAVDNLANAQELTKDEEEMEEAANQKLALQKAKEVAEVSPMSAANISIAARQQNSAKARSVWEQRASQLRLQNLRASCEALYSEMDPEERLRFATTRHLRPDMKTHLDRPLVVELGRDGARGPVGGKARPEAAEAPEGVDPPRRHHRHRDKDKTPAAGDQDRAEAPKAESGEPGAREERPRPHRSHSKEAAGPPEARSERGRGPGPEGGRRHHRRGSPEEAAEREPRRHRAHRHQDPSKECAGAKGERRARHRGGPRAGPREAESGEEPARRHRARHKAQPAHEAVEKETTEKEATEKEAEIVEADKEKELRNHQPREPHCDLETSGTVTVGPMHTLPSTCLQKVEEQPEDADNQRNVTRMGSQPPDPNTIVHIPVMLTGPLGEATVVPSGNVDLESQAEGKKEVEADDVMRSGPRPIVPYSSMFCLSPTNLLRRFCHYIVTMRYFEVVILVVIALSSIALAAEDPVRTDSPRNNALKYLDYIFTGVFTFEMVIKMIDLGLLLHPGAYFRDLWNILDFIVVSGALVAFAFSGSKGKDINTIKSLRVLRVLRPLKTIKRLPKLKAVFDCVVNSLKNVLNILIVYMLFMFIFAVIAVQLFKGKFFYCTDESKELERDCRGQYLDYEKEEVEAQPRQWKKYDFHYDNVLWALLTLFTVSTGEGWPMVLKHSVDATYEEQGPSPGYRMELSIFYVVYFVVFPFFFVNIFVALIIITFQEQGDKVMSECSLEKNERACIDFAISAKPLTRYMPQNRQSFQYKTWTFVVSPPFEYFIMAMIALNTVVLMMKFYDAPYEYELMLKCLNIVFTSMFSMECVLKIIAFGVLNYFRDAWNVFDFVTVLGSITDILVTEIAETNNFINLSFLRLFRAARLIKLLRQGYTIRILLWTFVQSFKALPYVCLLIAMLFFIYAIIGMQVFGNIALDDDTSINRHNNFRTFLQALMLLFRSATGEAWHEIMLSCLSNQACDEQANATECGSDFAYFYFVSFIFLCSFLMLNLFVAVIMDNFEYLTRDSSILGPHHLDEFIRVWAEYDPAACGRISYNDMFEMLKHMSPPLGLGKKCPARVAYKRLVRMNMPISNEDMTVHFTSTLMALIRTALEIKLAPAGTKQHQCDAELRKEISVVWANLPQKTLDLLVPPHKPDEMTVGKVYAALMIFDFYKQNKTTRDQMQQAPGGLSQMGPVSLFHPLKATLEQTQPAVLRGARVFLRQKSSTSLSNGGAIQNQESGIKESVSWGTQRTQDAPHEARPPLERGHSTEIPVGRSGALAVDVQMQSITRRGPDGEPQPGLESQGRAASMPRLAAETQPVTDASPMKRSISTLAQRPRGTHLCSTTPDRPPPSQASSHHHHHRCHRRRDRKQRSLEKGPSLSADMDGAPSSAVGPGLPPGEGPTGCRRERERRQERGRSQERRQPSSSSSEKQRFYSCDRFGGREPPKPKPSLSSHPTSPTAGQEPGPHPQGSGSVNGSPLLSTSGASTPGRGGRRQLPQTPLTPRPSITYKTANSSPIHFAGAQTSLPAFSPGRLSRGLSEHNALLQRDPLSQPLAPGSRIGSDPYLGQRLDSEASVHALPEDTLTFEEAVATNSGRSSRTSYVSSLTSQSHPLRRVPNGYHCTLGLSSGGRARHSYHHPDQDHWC
Mitogen-activated protein kinase 14 (Homo sapiens), sequence (Q16539 whole entry): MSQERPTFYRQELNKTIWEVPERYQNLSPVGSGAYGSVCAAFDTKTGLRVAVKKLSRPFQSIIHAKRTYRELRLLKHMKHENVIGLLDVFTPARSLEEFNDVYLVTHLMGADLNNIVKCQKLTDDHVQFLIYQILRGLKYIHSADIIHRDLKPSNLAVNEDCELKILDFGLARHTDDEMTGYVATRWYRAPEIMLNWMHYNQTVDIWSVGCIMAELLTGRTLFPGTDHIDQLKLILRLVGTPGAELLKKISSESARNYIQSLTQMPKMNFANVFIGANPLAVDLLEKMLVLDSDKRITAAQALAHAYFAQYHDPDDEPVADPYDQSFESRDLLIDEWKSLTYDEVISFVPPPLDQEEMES
Muscarinic acetylcholine receptor M3 (Homo sapiens), sequence (P20309 whole entry, looked up): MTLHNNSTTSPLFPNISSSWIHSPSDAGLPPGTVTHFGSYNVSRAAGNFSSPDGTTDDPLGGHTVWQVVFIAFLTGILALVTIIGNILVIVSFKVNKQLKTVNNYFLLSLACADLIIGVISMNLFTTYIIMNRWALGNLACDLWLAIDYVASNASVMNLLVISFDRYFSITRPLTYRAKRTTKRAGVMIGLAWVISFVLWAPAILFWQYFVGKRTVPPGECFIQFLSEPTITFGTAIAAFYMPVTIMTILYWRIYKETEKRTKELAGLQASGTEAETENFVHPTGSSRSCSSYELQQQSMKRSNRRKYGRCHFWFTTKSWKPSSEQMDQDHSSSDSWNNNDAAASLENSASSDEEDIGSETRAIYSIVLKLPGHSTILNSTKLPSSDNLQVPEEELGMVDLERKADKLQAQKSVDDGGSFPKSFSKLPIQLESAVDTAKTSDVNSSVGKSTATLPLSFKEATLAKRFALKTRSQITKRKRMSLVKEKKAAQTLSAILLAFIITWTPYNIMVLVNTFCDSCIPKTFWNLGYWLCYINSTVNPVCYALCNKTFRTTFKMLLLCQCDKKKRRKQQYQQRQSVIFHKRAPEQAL

Activity [1]: 7.31 nM
SMILES: O=C(C[C@H](CCCc1ccc(Cl)cc1)C(=O)N[C@@H](CC1CCCCC1)C(=O)NCCc1ccccc1)NO

Activity [2]: 26 nM
SMILES: COc1ccc(NC(=O)C(CS)Cc2ccccc2)cc1 (centres undefined)

Activity [3]: 350 nM
SMILES: Cn1c(C(=O)Nc2ccccc2C(=O)NC(Cc2ccccc2)C(=O)O)cc2ccccc21 (centres undefined)

Activity [1]: 325 nM
SMILES: O=C(CCC(NS(=O)(=O)c1ccc2oc3ccccc3c2c1)C(=O)O)NCCc1ccccc1 (centres undefined)

Activity (Renin (Homo sapiens)): 200 nM
SMILES: CC(C)CC[C@@H](O)C(CC1CCCCC1)NC(=O)C(C)NC(=O)C(Cc1ccccc1)NC(=O)OC(C)(C)C (some centres undefined)

Activity [7]: 530 nM
SMILES: N[C@@H](C(=O)O)[C@H]1[C@H](CNC(=O)Nc2ccccc2)[C@H]1C(=O)O

Activity [2]: 12 nM
SMILES: O=C(O)C(Cc1ccccc1)NC(=O)[C@H](Cc1ccc2c(c1)oc1ccccc12)NCP(=O)(O)O (some centres undefined)

Activity [11]: 2 nM
SMILES: O=C(Nc1ccccc1)NC1CC(C(=O)O)Nc2cc(Cl)cc(Cl)c21 (centres undefined)

Activity [12]: 22 nM
SMILES: CCCC1(C(=O)Nc2cccc(F)c2)CCc2c(c3ccccc3n2CC(=O)O)C1 (centres undefined)

Activity [8]: 250 nM
SMILES: CC(C)(C)OC(=O)N[C@@H](Cc1ccccc1)C(=O)N1CCN(C(c2ccc(F)cc2)c2ccc(F)cc2)CC1

Activity [6]: 6.8 nM
SMILES: CC(C)(C)OC(=O)NC(C(=O)N1CCC[C@H]1C(=O)NCC1CCC(N)CC1)c1ccccc1 (some centres undefined)

Activity (Renin (Homo sapiens)): 700 nM
SMILES: CC(C)C[C@H](NC(=O)[C@@H](C)NC(=O)[C@@H](Cc1ccccc1)NC(=O)OC(C)(C)C)C(O)CSC(C)C (single isomer, unassigned)

Activity [15]: 22 nM
SMILES: O=C(O)Cc1nn(CC(=O)Nc2cccc(F)c2)c(=O)c2ccccc12

Activity [16]: 10.2 nM
SMILES: Cc1cccc(C[C@@H](NC(=O)C(c2ccccc2)c2ccccc2)C(=O)N[C@@H](C#N)COCc2ccccc2)c1

More lines, now with the values behind:

SMILES: COc1ccc(NC(=O)NC2N=C(c3ccccc3)c3ccccc3N(C)C2=O)cc1 (centres undefined)
Activity [3]: 165 nM

SMILES: Fc1ccc(CNc2nccc(-c3c(-c4ccc(F)cc4)nc4occn34)n2)cc1
Activity [4]: 90.9 nM

SMILES: CC(C)=CCCN1CCC(NC(=O)[C@@](O)(c2ccccc2)[C@H]2CCC(NC(=O)OCc3ccccc3)C2)CC1 (some centres undefined)
Activity [5]: 5.2 nM

SMILES: CCOC(=O)CN(c1cc(C)cc(OCCc2ccc(C(=N)N)cc2)c1)S(=O)(=O)c1ccccc1Cl
Activity [6]: 300 nM

SMILES: O=C(Nc1ncc([N+](=O)[O-])s1)C(c1ccccc1)c1ccccc1
Activity [8]: 250 nM

SMILES: C[C@@]12Cc3cnn(-c4ccc(F)cc4)c3C=C1CC[C@H]1C2=CC[C@H](C(F)(F)F)[C@H]1NCc1ccc(F)cc1
Activity [9]: 3 nM

SMILES: C=CCN(CC(=O)OCC)C(=O)/C(C)=C/c1ccc(C(=O)Nc2ccc(C(=N)N)cc2)cc1
Activity [10]: 65 nM

SMILES: COC(=O)N[C@H](C(=O)N(C)[C@@H](CN1CCCC1)c1ccccc1)c1ccccc1
Activity [13]: 178 nM

SMILES: CCc1cc(-c2ccn[nH]2)c(O)cc1OCCCOc1ccc(CC(=O)O)cc1
Activity [10]: 54 nM

SMILES: CN1CC[C@H](c2ccc(Cl)cc2)[C@H](CSCC(=O)NCCc2ccccc2)C1
Activity [14]: 23 nM
